Experimental data taken from PubChem BioAssay AID330 (DTP/NCI, 2004).
Values joined by “and” are separate entries in the source; they are usually repeats but may differ in a detail not shown here. Equal values may be shown once. Toxic doses and inconclusive results are not listed. How the source made its calls: active means survival T/C of 150% or more; inactive means T/C below 125% in these data.

Tested on: P388 leukemia ip, CD2F1 mice, survival T/C
Assay: NCI In Vivo Anticancer Drug Screen. Data for tumor model P388 Leukemia (intraperitoneal) in CD2F1 (CDF1) mice
Details: endpoint: median survival time, higher = longer survival
Summary of the method: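 Mice carrying the transplanted tumor received test compound or vehicle. Survival was recorded in each group, and the value is the treated-group measurement divided by that of the vehicle-treated control group.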

[1] = dose: 50.0 mg/kg/injection, schedule: Q01DX009 (ip), vehicle: saline
[2] = dose: 50.0 mg/kg/injection, schedule: Q01DX005 (ip), vehicle: Klucel (hydroxypropylcellulose) (HPC)
[3] = dose: 200.0 mg/kg/injection, schedule: Q01DX005 (ip), vehicle: Klucel (hydroxypropylcellulose) (HPC)
[4] = dose: 50.0 mg/kg/injection, schedule: Q01DX005 (ip), vehicle: saline with Tween-80
[5] = dose: 100.0 mg/kg/injection, schedule: Q01DX005 (ip), vehicle: saline with Tween-80
[6] = dose: 200.0 mg/kg/injection, schedule: Q01DX005 (ip), vehicle: saline with Tween-80
[7] = dose: 60.0 mg/kg/injection, schedule: Q01DX005 (ip), vehicle: saline with Tween-80
[8] = dose: 120.0 mg/kg/injection, schedule: Q01DX005 (ip), vehicle: saline with Tween-80
[9] = dose: 240.0 mg/kg/injection, schedule: Q01DX005 (ip), vehicle: saline with Tween-80
[10] = dose: 100.0 mg/kg/injection, schedule: Q01DX005 (ip), vehicle: Klucel (hydroxypropylcellulose) (HPC)
[11] = dose: 100.0 mg/kg/injection, schedule: Q01DX009 (ip), vehicle: saline with Tween-80
[12] = dose: 200.0 mg/kg/injection, schedule: Q01DX009 (ip), vehicle: saline with Tween-80
[13] = dose: 400.0 mg/kg/injection, schedule: Q01DX009 (ip), vehicle: saline with Tween-80

Measured: T/C

CC1(C)N=C(N)N=C(N)N1c1ccc(CCCCc2cccc(S(=O)(=O)F)c2)c(Cl)c1
inactive: dose: 0.11 mg/kg/injection, schedule: Q01DX009 (ip), vehicle: saline with Tween-80 107 % of control | dose: 0.17 mg/kg/injection, schedule: Q01DX009 (ip), vehicle: saline with Tween-80 111 % of control | dose: 0.25 mg/kg/injection, schedule: Q01DX009 (ip), vehicle: saline with Tween-80 115 % of control | dose: 0.66 mg/kg/injection, schedule: Q01DX009 (ip), vehicle: saline with Tween-80 107 % of control | dose: 1.0 mg/kg/injection, schedule: Q01DX009 (ip), vehicle: saline with Tween-80 109 % of control | dose: 25.0 mg/kg/injection, schedule: Q01DX009 (ip), vehicle: saline with Tween-80 95 % of control
active: dose: 3.3 mg/kg/injection, schedule: Q01DX009 (ip), vehicle: saline with Tween-80 160 % of control | dose: 5.0 mg/kg/injection, schedule: Q01DX009 (ip), vehicle: saline with Tween-80 150 % of control | dose: 6.25 mg/kg/injection, schedule: Q01DX009 (ip), vehicle: saline with Tween-80 150 % of control | dose: 7.5 mg/kg/injection, schedule: Q01DX009 (ip), vehicle: saline with Tween-80 155 % of control | dose: 8.0 mg/kg/injection, schedule: Q01DX009 (ip), vehicle: saline with Tween-80 154 % of control | dose: 8.0 mg/kg/injection, schedule: Q01DX009 (ip), vehicle: saline 157 % of control | dose: 12.0 mg/kg/injection, schedule: Q01DX009 (ip), vehicle: saline with Tween-80 163 % of control | dose: 12.0 mg/kg/injection, schedule: Q01DX009 (ip), vehicle: saline 154 % of control | dose: 12.5 mg/kg/injection, schedule: Q01DX009 (ip), vehicle: saline with Tween-80 150 % of control | dose: 18.0 mg/kg/injection, schedule: Q01DX009 (ip), vehicle: saline with Tween-80 150 % of control | dose: 18.0 mg/kg/injection, schedule: Q01DX009 (ip), vehicle: saline 181 % of control | dose: 27.0 mg/kg/injection, schedule: Q01DX009 (ip), vehicle: saline with Tween-80 150 % of control

Cc1ccc(N2C(=O)c3cccc4c(N)c(S(=O)(=O)O)cc(c34)C2=O)cc1
inactive: [1] 108 % of control | dose: 100.0 mg/kg/injection, schedule: Q01DX009 (ip), vehicle: saline 104 % of control | dose: 200.0 mg/kg/injection, schedule: Q01DX009 (ip), vehicle: saline 100 % of control

COC(=O)C12OCC34C(CC5C(C)=C(O)C(=O)CC5(C)C3C(O)C1O)OC(=O)C(OC(=O)C=C(C)C)C24 (centres undefined) (tested in a mixture with another compound)
inactive: dose: 0.03 mg/kg/injection, schedule: Q01DX009 (ip), vehicle: saline + alcohol 106 % of control | dose: 0.06 mg/kg/injection, schedule: Q01DX009 (ip), vehicle: saline + alcohol 113 % of control | dose: 0.13 mg/kg/injection, schedule: Q01DX009 (ip), vehicle: saline + alcohol 107 % of control | dose: 0.25 mg/kg/injection, schedule: Q01DX009 (ip), vehicle: saline + alcohol 98 % of control | dose: 0.5 mg/kg/injection, schedule: Q01DX009 (ip), vehicle: saline + alcohol 94 % of control | dose: 1.0 mg/kg/injection, schedule: Q01DX009 (ip), vehicle: saline + alcohol 106 % of control | dose: 2.0 mg/kg/injection, schedule: Q01DX009 (ip), vehicle: saline + alcohol 94 % of control

COc1cc2c(cc1O)c(O)cc1c3cc(OC)c(OC)cc3c[n+](C)c21
active: dose: 25.0 mg/kg/injection, schedule: Q01DX005 (ip), vehicle: Klucel (hydroxypropylcellulose) (HPC) 152 % of control | [2] 153 % of control and 160 % of control | [3] 156 % of control and 159 % of control

CN1N=Nc2ccccc2NC1=O
inactive: [4] 96 % of control | [5] 99 % of control | [6] 91 % of control

O=S(=O)(c1ccccn1)c1nc2ccccc2s1
inactive: [7] 94 % of control | [8] 90 % of control | [9] 94 % of control

C#CC1CCC(NC(=O)NCCCCCCNC(=O)NC2CCC(C#C)CC2)CC1 (centres undefined)
inactive: [2] 90 % of control | [10] 94 % of control | [3] 86 % of control

CCCCC(CC)COCC(O)Cn1cnc2c(N)ncnc21 (centres undefined)
inactive: [2] 104 % of control | [10] 97 % of control | [3] 91 % of control

Nc1cccc2nccn12
inactive: dose: 12.5 mg/kg/injection, schedule: Q01DX009 (ip), vehicle: saline 105 % of control | dose: 25.0 mg/kg/injection, schedule: Q01DX009 (ip), vehicle: saline 102 % of control | [1] 104 % of control and 95 % of control

C/C(CC(c1ccccc1)N1CCc2ccccc2C1)=N/O (centres undefined)
inactive: [11] 100 % of control | [12] 100 % of control | [13] 100 % of control

Cn1c2ccccc2c2cnn3c(-c4ccccc4)nnc3c21
inactive: dose: 100.0 mg/kg/injection, schedule: Q01DX001 (ip), vehicle: Klucel (hydroxypropylcellulose) (HPC) 105 % of control | dose: 200.0 mg/kg/injection, schedule: Q01DX001 (ip), vehicle: Klucel (hydroxypropylcellulose) (HPC) 100 % of control | dose: 400.0 mg/kg/injection, schedule: Q01DX001 (ip), vehicle: Klucel (hydroxypropylcellulose) (HPC) 100 % of control

CC1(C)CCCC(C)(C2CCC3(C)C2C(O)CC2C4(C)CCC(O)C(C)(C)C4CCC23C)O1 (centres undefined)
inactive: dose: 8.0 mg/kg/injection, schedule: Q01DX009 (ip), vehicle: Klucel (hydroxypropylcellulose) (HPC) 101 % of control | dose: 16.0 mg/kg/injection, schedule: Q01DX009 (ip), vehicle: Klucel (hydroxypropylcellulose) (HPC) 96 % of control | dose: 32.0 mg/kg/injection, schedule: Q01DX009 (ip), vehicle: Klucel (hydroxypropylcellulose) (HPC) 99 % of control | dose: 37.5 mg/kg/injection, schedule: Q01DX009 (ip), vehicle: Klucel (hydroxypropylcellulose) (HPC) 103 % of control | dose: 64.0 mg/kg/injection, schedule: Q01DX009 (ip), vehicle: Klucel (hydroxypropylcellulose) (HPC) 97 % of control | dose: 75.0 mg/kg/injection, schedule: Q01DX009 (ip), vehicle: Klucel (hydroxypropylcellulose) (HPC) 94 % of control | dose: 150.0 mg/kg/injection, schedule: Q01DX009 (ip), vehicle: Klucel (hydroxypropylcellulose) (HPC) 100 % of control | dose: 300.0 mg/kg/injection, schedule: Q01DX009 (ip), vehicle: Klucel (hydroxypropylcellulose) (HPC) 91 % of control

CCCCCCCCCCCCCCCCCCOCC(CO)OC (centres undefined)
inactive: [4] 101 % of control and 115 % of control | [5] 115 % of control and 123 % of control | [6] 123 % of control | dose: 400.0 mg/kg/injection, schedule: Q01DX005 (ip), vehicle: saline with Tween-80 97 % of control

CCCCCCCN(CCCCCCC)CC(O)c1ccc2ccc3ccc(Cl)cc3c2c1 (centres undefined)
inactive: [4] 96 % of control | [5] 96 % of control | [6] 104 % of control

CCN(CC)CCN1c2ccc(C)cc2Sc2ccc3ccccc3c21
inactive: dose: 50.0 mg/kg/injection, schedule: Q01DX005 (ip), vehicle: saline + Tween-80 + alcohol 112 % of control | dose: 100.0 mg/kg/injection, schedule: Q01DX005 (ip), vehicle: saline + Tween-80 + alcohol 102 % of control | dose: 200.0 mg/kg/injection, schedule: Q01DX005 (ip), vehicle: saline + Tween-80 + alcohol 114 % of control

CCCCC(CC)CN=Cc1c(O)c(O)c(C(C)C)c2cc(C)c(-c3c(C)cc4c(C(C)C)c(O)c(O)c(C=NCC(CC)CCCC)c4c3O)c(O)c12 (centres undefined)
inactive: [4] 93 % of control | [5] 88 % of control | [6] 86 % of control

COc1ccc(/C=N/N2CN(C(C)C(=O)O)B(NC34CC5CC(CC(C5)C3)C4)N=C2N)cc1OC (centres undefined)
inactive: [7] 104 % of control | [8] 99 % of control | [9] 93 % of control

CCOc1ccc2nc3cc(N=Nc4ccc(N(C)C)cc4)ccc3c(N)c2c1
inactive: dose: 50.0 mg/kg/injection, schedule: Q01DX009 (ip), vehicle: saline with Tween-80 110 % of control | [11] 110 % of control

CC(=O)N(c1ccccc1)[Si](C)(C)C
inactive: dose: 100.0 mg/kg/injection, schedule: Q01DX001 (ip), vehicle: saline with Tween-80 107 % of control | dose: 200.0 mg/kg/injection, schedule: Q01DX001 (ip), vehicle: saline with Tween-80 106 % of control | dose: 400.0 mg/kg/injection, schedule: Q01DX001 (ip), vehicle: saline with Tween-80 100 % of control

O=C(Nc1ccccc1)c1ccccc1C(O)(c1ccccc1)c1ccc(Cl)cc1 (centres undefined)
inactive: [11] 95 % of control | [12] 90 % of control | [13] 90 % of control
